Results as given in patent EP4417202A1, “ANTI-CANCER ACTION OF BAG1-SELECTIVE IMIDAZOPYRIDINE COMPOUNDS IN STEROID HORMONE RECEPTOR-POSITIVE BREAST AND PROSTATE CANCER” (Karlsruher Institut für Technologie, priority 2023, dated 2024).

Experiments:
BAG1 = test: Western blot of BAG1 level in breast cancer cells; assay type: cell-based; details: MCF-7 and T47D cells, 48 h
Description: (§3) For Western blotting, cells were lysed in NP-40 lysis buffer (1% NP-40, 50 mM Tris-HCl, pH 8.0, 150 mM NaCl, 5 mM EDTA) or 1× passive lysis buffer (Promega, Germany) for 15 min on ice. Cell debris was removed by centrifugation at 13,000 rpm for 10 min and used for SDS-polyacrylamide gel electrophoresis (PAGE) and Western blotting.
(§4) Western Blotting was carried out using standard protocols with antibodies: p53 (clone DO1), p53 (Sp5, Thermo Fisher Scientific Karlsruhe, Germany), Mdm2 (4B2, Abcam, Cambridge, UK). […] Secondary goat anti-mouse and goat anti-rabbit antibodies were purchased from DAKO (Bollschweil, Germany).

p53 = test: Western blot of p53 level in breast cancer cells; assay type: cell-based; details: 48 h
Description: as §3, §4

LAPC-4 cells = test: FACS cell cycle analysis; assay type: cell-based; details: 1 µM, 48 h, DRAQ5
Description: (§1) LNCaP, LAPC-4, MCF-7 and T47D cells were treated with 1 µM X15695 or DMSO for 48 h. Single cell suspensions (1×10^6 cells) were prepared in 150 µl PBS/10% FBS. Cells were fixed by addition of 5 ml ice-cold ethanol (70%) and over-night incubation at 4°C. Fixed LNCaP and LAPC-4 cells were stained with 20 µM DRAQ5 (5mM stock, Thermo Fisher Scientific) and incubated for 15 min at room temperature. Fixed MCF-7 and T47D cells were resuspended in PBS at concentration of 1×10^6 cells/100 µl and stained by addition of 5 µl of 7-AAD (BD Bioscience, San Diego, CA, USA) for 15 min at room temperature in the dark. Flow cytometry analysis was performed using BD FACSAria (BD Biosciences, Franklin Lakes, NJ, USA). Doublets and dead cells were excluded from the analysis. Flow cytometry data were analyzed using FlowJo 10.8.1 cytometry analysis software (FlowJo, LLC).

LNCaP cells = test: FACS cell cycle analysis; assay type: cell-based; details: 1 µM, 48 h, DRAQ5
Description: as §1

MCF-7 cells = test: FACS cell cycle analysis; assay type: cell-based; details: 1 µM, 48 h, 7-AAD
Description: as §1

T47D cells = test: FACS cell cycle analysis; assay type: cell-based; details: 1 µM, 48 h, 7-AAD
Description: as §1

22Rv.1 = test: Clonogenic assay (clonal expansion); assay type: cell-based; details: Homo sapiens, 22Rv1; Prostate Cancer (22Rv.1), AR+; inhibition of clonal expansion
Description: (§2) Cells were seeded at a density of 1-2×10^3 cells/well in a 6 well plate in RPMI 1640 supplemented with 10% FBS, penicillin (100 u/ml), streptomycin (100 u/ml), and L-glutamine (2 mM). Cells were treated with increasing concentrations of X15695 and cultured for 14 to 21 days. Medium and compounds were exchanged after 7 days. Cells were fixed with methanol/ acetic acid mixture (3:1 v/v) and the formation of colonies was visualized using 0.5% crystal violet (w/v) in 20% methanol (v/v). Plates were scanned in a conventional office scanner (Epson). The area covered by colonies was calculated using the ColonyArea Plugin for ImageJ.

A549 = test: Clonogenic assay (clonal expansion); assay type: cell-based; details: A549 (lung)
Description: as §2

DU145 = test: Clonogenic assay (clonal expansion); assay type: cell-based; details: Homo sapiens, DU-145; Prostate Cancer (DU145), AR-; inhibition of clonal expansion
Description: as §2

HeLa = test: Clonogenic assay (clonal expansion); assay type: cell-based; details: HeLa (cervical)
Description: as §2

LNCaP = test: Clonogenic assay (clonal expansion); assay type: cell-based; details: Homo sapiens; Prostate Cancer (LNCaP), AR+; inhibition of clonal expansion
Description: as §2

MCF-7 = test: Clonogenic assay (clonal expansion); assay type: cell-based
Description: as §2

MDA-MB231 = test: Clonogenic assay (clonal expansion); assay type: cell-based; details: Homo sapiens, MDA-MB-231; Breast Cancer (MDA-MB231), ER-; inhibition of clonal expansion
Description: as §2

PC3 = test: Clonogenic assay (clonal expansion); assay type: cell-based; details: Homo sapiens; Prostate Cancer (PC3), AR-; inhibition of clonal expansion
Description: as §2

T47D = test: Clonogenic assay (clonal expansion); assay type: cell-based; details: Homo sapiens; Breast Cancer (T47D), ER+; inhibition of clonal expansion
Description: as §2

TRMCF-7 cells = test: Clonogenic assay (clonal expansion); assay type: cell-based
Description: as §2

U2OS = test: Clonogenic assay (clonal expansion); assay type: cell-based; details: U2OS (osteosarcoma)
Description: as §2

ZR75-1 = test: Clonogenic assay (clonal expansion); assay type: cell-based; details: Homo sapiens, ZR-75-1; Breast Cancer (ZR75-1), ER+; inhibition of clonal expansion
Description: as §2

[1] = test system: AR target gene expression; test: Quantitative RT-PCR of AR target genes in LNCaP cells; assay type: cell-based; details: 10 nM DHT, 16 h, compared among the six selected imidazopyridines
Description: MCF-7, T47D and LNCaP cells (5×10^4 each) were seeded in 6-well plates and cultured with hormone-depleted medium for 3 days. Subsequently, the MCF-7 and T47D cells were treated with 10 nM 17-β-estradiol (E2) or dihydrotestosterone (DHT) for the LNCaP cells, 1 µM) X15695 (for the MCF-7 and T47D cells) or 5 µM) for LNCaP cells and X15695 together with E2 or DHT. A 1 h pre-treatment with X15695 was performed prior to treatment with E2 or DHT for 16 h. RNA was extracted using innuPREP RNA mini Kit 2.0 (Analytic Jena, Berlin, Germany). 1 µg RNA per sample was used as input material for the RNA sample preparations. Sequencing libraries were generated using NEBNext® UltraTM RNA Library Prep Kit for Illumina® (NEB, USA) following the manufacturer's recommendations and index codes were added to attribute sequences to each sample. The clustering of the index-coded samples was performed on a cBot Cluster Generation System using PE Cluster Kit cBot-HS (Illumina) according to the manufacturer's instructions. After cluster generation, the library preparations were sequenced on an Illumina platform and paired-end reads were generated. Library preparation and sequencing were carried out by Novogene Europe, Cambridge, UK. […] Select target genes were analyzed by RT-PCR experiments with RNA from the samples used for the RNA-seq analysis. […]

ERα = details: MCF-7 cells, 1 µM for 24 h, then 100 µg/ml cycloheximide; > 120 min in the absence of X15695
Description: Thereafter, cells were incubated with the protein synthesis inhibitor cycloheximide (100 µg/ml) and harvested at time points 0, 30, 60, 90 and 120 min. Cells were lysed and used for Western blotting to determine the ERα level at each time point.

Q: What does the source list for Fc1ccc(-c2cn3cc(C(F)(F)F)cc(Cl)c3n2)cc1 [Compound X15695, 8-Chloro-2-(4-fluorophenyl)-6-(trifluoromethyl)imidazo[1,2-a]pyridine]?
A: level of the BAG1 proteins (BAG1): dose-dependent decrease in the level of the BAG1 proteins; p53 level (p53; MCF-7 cells (wild-type p53)): significantly increased; p53 level (p53; T47D cells (mutated p53 L194F)): not in T47D cells; cell cycle arrest (LAPC-4 cells): G2/M arrest; cell cycle arrest (LNCaP cells): G1/S phase arrest; cell cycle arrest (MCF-7 cells): G1/S phase arrest; cell cycle arrest (T47D cells): G2/M cell cycle arrest; IC50 (22Rv.1): 40.2 ± 16.7 nM; effect on clonal expansion (A549): did not have any effect; IC50 (DU145): 1340 nM; effect on clonal expansion (HeLa): did not have any effect; IC50 (LNCaP): 14.1 nM; IC50 (MCF-7; Homo sapiens, MCF7, Breast Cancer (MCF-7), ER+, inhibition of clonal expansion): 3.5 ± 1.7 nM; effect on clonal expansion (MCF-7; MCF-7 cells, compared with HeLa, A549 and U2OS): dose-dependently inhibited the clonal expansion; IC50 (MDA-MB231): 5.54 µM; IC50 (PC3): 2040 nM; IC50 (T47D): 10.4 ± 2.8 nM; inhibition of clonal expansion (TRMCF-7 cells): active; effect on clonal expansion (U2OS): did not have any effect; IC50 (ZR75-1): 7.3 ± 1.6 nM; attenuation of androgen-induced AR target gene expression [1]: the compound with the most inhibitory activity; ERα half-life (ERα): about 60 min
